Reference: the OPERA property sets (Mansouri et al. 2018)

Row | SMILES | logP
1 | O=C(Cc1cccnc1)NN1CC=CCC1 | 0.05
2 | CCc1nc2cccc(C)n2c(=O)c1C | 1.87
3 | Cc1nn(-c2ccccc2)c(Nc2ccccc2)c1[N+](=O)[O-] | 2.98
4 | CC(C)(C)c1ccc(OCC(OC(=O)n2ccnc2)C(C)(C)C)cc1 (configuration not stated) | 4.82
5 | CC(C(=O)CCN(C)C)N1C(=O)C2CC=CCC2C1=O (configuration not stated) | 0.77
6 | O=C(O)Cc1ccc(C2CCCCC2)cc1 | 3.91
7 | CNC(=S)NCCCCc1nc[nH]c1C | 0.85
8 | FC(F)(F)c1nc2c(Cl)c(Cl)c(Cl)cc2[nH]1 | 3.87
9 | Clc1cccc(Cl)c1Cl | 4.05
10 | Clc1ccncc1 | 1.28
11 | N=C(N)N1CCc2ccccc2C1 | 0.75
12 | CCCC1=Nc2cc(Cl)c(S(N)(=O)=O)cc2S(=O)(=O)N1 | 1.21
13 | CCCCNC(=O)CCn1ccc(=O)c(O)c1C | -0.1
14 | NC(=S)NNC(=O)c1ccc2c(c1)OCO2 | 0.21
15 | O=c1[nH]cc(F)c(=O)n1Oc1ccccc1 | 0.8
16 | Cc1c(O)c(=O)ccn1CCC(=O)N(C)C | -1.16
17 | CCC(C(=O)OCc1ccc(Cl)cc1)C(CO)Cc1cncn1C (configuration not stated) | 2.69
18 | CCNC(=O)NCCCCn1nc(-c2ccccc2)ccc1=O | 1.83
19 | CC(C)(C)OC(=O)C(C(=O)OC(C)(C)C)=C1SCCS1 | 4.01
20 | COc1cc(N)ccc1C(=O)O | 0.45
21 | COc1ccc(OCC(OC(=O)n2ccnc2)C(C)(C)C)cc1 (configuration not stated) | 3.46
22 | Cc1nn(-c2ccccc2)c(Nc2ccc(C(F)(F)F)cc2)c1[N+](=O)[O-] | 3.89
23 | COc1ccc2cc(C(C)C(=O)OCC=C(C)CCC=C(C)C)ccc2c1 (configuration not stated) | 7.77
24 | COC(=O)NC1=NCC(c2ccccc2F)N1C (configuration not stated) | 1.53

Row | SMILES | logP
25 | NS(=O)(=O)c1cc2c(cc1Br)NC=NS2(=O)=O | 0
26 | NC(=O)c1cc2ccccc2[nH]1 | 1.61
27 | NC(=O)Nc1ccc(C(=O)O)cc1 | 0.73
28 | Cc1cc(C(=O)O)ccc1N | 1.37
29 | COc1cc(S(C)=O)ccc1-c1nc2ncc(N)cc2[nH]1 (configuration not stated) | 0.33
30 | O=C(OCn1c(=O)[nH]cc(F)c1=O)Oc1ccccc1 | 1.11
31 | CCOC(=O)c1cnc2n(c1=O)CC(C)CC2 (configuration not stated) | 0.71
32 | O=c1[nH]c2cc(Cl)ccc2n1C1CCN(CCCC(c2ccc(F)cc2)c2ccc(F)cc2)CC1 | 7.1
33 | O=C(O)CCCC(=O)c1ccccc1 | 1.49
34 | Clc1cc(Cl)cc(-c2cc(Cl)cc(Cl)c2)c1 | 6.6
35 | CCOc1ccc(OCC(OC(=S)n2ccnc2)C(C)(C)C)cc1 (configuration not stated) | 4.58
36 | CS(=O)(=O)c1ccc(OCC(=O)O)cc1 | 0.06
37 | C=CCC(CC=C)(C(=O)NC(N)=O)C(=O)OC | 1.37
38 | CCCCC(CC)C(=O)N1c2ccc(C)cc2C2CN(C)CCC21 (configuration not stated) | 4.14
39 | COc1ccc(C(O)C(=O)O)cc1 (configuration not stated) | 0.63
40 | CCC(C(=O)OCCc1ccccc1)C(CO)Cc1cncn1C (configuration not stated) | 2.31
41 | CC(=O)N(C)C1=NC(=O)C(=Cc2ccc([N+](=O)[O-])o2)S1 | 1.05
42 | Cc1cc2n(c1C(=O)c1ccc(Cl)cc1)CCC2C(=O)O (configuration not stated) | 3.6
43 | O=C1CC2(CCCC2)C(=O)N1OCc1ccccc1 | 2.3
44 | Cc1cccc(C(N)=O)c1O | 2.12
45 | CNc1nc(C)c(C(=O)CCN2CCCC2)s1 | 1.86
46 | O=C(c1c(F)c(F)c(F)c(F)c1F)c1ccc2n1CCC2C(=O)O (configuration not stated) | 3.24
47 | CC(C)(C)C(COc1ccc(Cl)cc1)OC(=O)n1ccnc1 (configuration not stated) | 4.19
48 | CC(C)COC(=O)N(C)C | 2

Row | SMILES | logP
49 | CCCCn1ccc(=O)c(O)c1CC | 1.22
50 | NS(=O)(=O)c1ccc(Cl)c([N+](=O)[O-])c1 | 0.66
51 | NC12CCCCC1c1ccccc1C2 (configuration not stated) | 2.94
52 | Nc1ccc(S(=O)(=O)N2C(=O)NC(=O)C2(c2ccccc2)c2ccccc2)cc1 | 3.27
53 | CC(n1ccnc1)C(O)(c1ccc(F)cc1)c1ccc(F)cc1 (configuration not stated) | 3.13
54 | CC1CCC2C(C)C(O)OC3OC4(C)CCC1C32OO4 (configuration not stated) | 2.19
55 | CC(=O)N1CCCC1=O | -0.05
56 | C=CC(=O)OCCOCCOCCOCCOC(=O)C=C | 1.26
57 | OC(Cn1ccnc1)(c1ccc(F)cc1)c1ccc(F)cc1 | 2.95
58 | NC(=O)Nc1ccc(Cl)c(Cl)c1 | 2.65
59 | CCN(CC)c1cccc(S(=O)(=O)[O-])c1.[Na+] | -1.6
60 | O=C(O)CCc1ccc(OCc2ccccc2)cc1 | 3.31
61 | CC(C)(C)C(=O)OCC1OC(n2cc(I)c(=O)[nH]c2=O)CC1O (configuration not stated) | 1.34
62 | CC(N)C(=O)O (configuration not stated) | -2.85
63 | Cn1c(S)nnc(-c2ccc(F)cc2)c1=O | 2.38
64 | CNC12CC=CCC1c1ccccc1C2 (configuration not stated) | 3.28
65 | COC(=O)NC1=NCC(c2cccc(Br)c2)N1 (configuration not stated) | 2.09
66 | Cc1ccc(C(N)=S)cc1 | 2.01
67 | O=C1NC(Cc2ccccc2)C(=O)N1Cc1ccccc1 (configuration not stated) | 2.84
68 | CCn1cc(C(=O)O)c(=O)c2cc3c(cc21)OCO3 | 0.94
69 | CSc1ccc(OCC(OC(=O)n2ccnc2)C(C)(C)C)cc1 (configuration not stated) | 4.03
70 | CCOP(=O)(O)Cc1ccc(Cl)cc1 | 1.6
71 | CCc1ccc(OCC(OC(=O)n2ccnc2)C(C)(C)C)cc1 (configuration not stated) | 4.1
72 | Cc1ccc(Cl)c(NS(=O)(=O)c2nc(C)n(-c3ccccc3)n2)c1Cl | 4.4
